The test system of assay [1] is Sox2-depleted osteoblasts. Briefly: Rescue of colony forming ability of Sox2-depleted osteoblasts. Conditions: 10 μM SB431542. Type of assay: cell-based, mouse. As for the experimental part:
For colony formation assay, 0.1×10^6 cells were plated per well in a cluster-6 well plate for 24 hours. The next day, the cells were infected with a retrovirus either encoding eGFP (MSCV-eGFP) or CRE (MSCV-CRE-eGFP) at an MOI of 10, in the presence of 8 μg/ml polybrene. Twenty-four (24) hours after infection, fresh medium was added to the plate and the cells were incubated for an additional 48 hours (72 hours total from the start of infection). The infected cells were then trypsinized and re-plated at a density of 1000 cells/well in a cluster-6 well plate. The plated were incubated for 7-10 days. Green colonies were visualized and counted under a fluorescence microscope. Colonies were fixed in 20% methanol for 15 minutes at room temperature, and counted after staining with 0.5% crystal violet in 20% methanol. We have developed a 96-well format, cell-based screen using two Sox2 foxed cell lines (F/F and F/-). […] The CellTiter-Blue® Cell Viability Assay is a fluorescence-based assay for measuring cell viability, and has an excellent Z′ factor^1. […] After one hour of incubation with the reagent, fluorescence was read using a Wallac Plate Reader (Perkinelmer, Waltham, Mass.). Z′ factor and z score for each plate was calculated for each cell line at different cell plating concentrations as described (28, 29). […]

In another assay the test system is iPSCs. Conditions: refs (7,32); cited from earlier work.

Regarding `NC(=O)c1ccc(-c2nc(-c3ccc4c(c3)OCO4)c(-c3ccccn3)[nH]2)cc1` [SB431542], in assay [1], the “rescue of loss of colony forming ability” value is “able to rescue to loss of colony forming ability”. The “bypass of the requirement of Sox2 in reprogramming” value in the assay on iPSCs is listed as “bypass the requirement of Sox2 in the reprogramming of iPSCs”.
